In patent US5789188A, “Tetracycline-efflux pump inhibitor screening methods” (priority 1996, dated 1998):
Converted amounts (≈) assume the structure as drawn. Where two headings read alike, the source gives them in different places.

How the values were obtained:
[1] = system: E. coli MC1061 containing pGG75; assay: MIC (LD 90) of maximally induced tetC (plasmid pGG75); format: cell-based; details: Escherichia coli, read-out: MIC (LD 90) of Maximally Induced tetC, pGG75
Procedure: (§1) E. coli MC1061 containing either pGG57, pCBSal or pGG75 were used to determine the MIC (LD 90) for tetracycline as well as six tetracycline analogs. […] MIC studies were performed in the presence of 0.01 mM IPTG for E. coli MC1061 containing pGG57. […] All of these MIC studies were done in duplicate.

strain KB5 = assay: MIC of strain KB5; format: cell-based, E. coli; details: Escherichia coli
[2] = system: tetracycline efflux pump (strain KB4 or KB5); assay: Inhibition Assay, plate assay (agar with 5 ng/ml of tetracycline); format: cell-based, E. coli; details: strain KB4 or KB5, spotted on plate
Procedure: (§2) To detect tetracyclines, a plate assay is developed that is similar to one described previously (11). Cells are grown in Luria Broth (adjusted with NaOH to pH 7.5) with 25 μg/ml of kanamycin to a cell density of 0.5 absorbance units (600 nm). A 25 ml sample of the culture is harvested by centrifugation and resuspended in 1 ml of broth. The cells are mixed with 25 ml of soft agar (1%, wt/vol) and poured onto 100 ml of LB (pH 7.5)+ kanamycin, within a 22 cm^2 NUNC plate (Corning). Samples are applied by spotting from 2 to 15 μl, or by applying a disc impregnated with a compound, and the plate is incubated for 3-4 hours at 37° C. The plates are overlaid with a solution containing 13.5 mg of 6-bromo-2-naphthyl-β-D-galactopyranoside side and 86.5 mg of fast blue RR (Sigma) dissolved in 2 ml of dimethylsulfoxide, to which 25 ml of soft agar is added. β-Galactosidase is detected by the presence of a purple spot.
Two assays are developed for detecting inhibitors of the tetA gene product (using strain KB5), or the tetK gene product (using strain KB4). In the Inhibition Assay, cells of strain KB4 or KB5 are treated as described in the tetracycline screen above, except that the agar medium contains 5 ng/ml of tetracycline. Alternatively a Liquid Assay is also developed. Cells are first grown in LB (pH 7.5). Then cells are shifted to medium containing 5 ng/ml of tetracycline, and tetracycline-containing samples are added to aliquots. Cells are then incubated and assayed as described for the Tetracycline Assay. […] However, the intracellular concentration is reduced in tetracycline resistant strains due to the action of the efflux pump, so more tetracycline would be required in the medium to accumulate sufficient tetracycline inside the cell to induce. The Inhibition Assay is designed to detect compounds that cause β-galactosidase induction in the presence of sub-inducing levels of tetracycline for a resistant strain.

[3] = system: E. coli MC1061 containing pGG57; assay: microbe, parasite or virus in culture; format: cell-based; details: Escherichia coli
Procedure: as §1

[4] = system: Tn10 derivative of strain KB3ind; assay: Induction in liquid culture, Tn10 strain; format: cell-based, E. coli; details: Escherichia coli, read-out: concentration for full induction of β-galactosidase, Tn10 strain, liquid culture
Procedure: (§3) Cells are added to tetracycline to the final concentration indicated as described in FIG. 7. The sensitive strain is the tetracycline screening organism KB3ind, which induces fully when grown in the presence of 5-10 ng/ml of tetracycline. In contrast, the strain containing the Tn10 element, conferring strong tetracycline resistance, induces fully when the concentration of tetracycline is above 1 μg/ml.
(§4) Alternatively, a liquid assay is also used. Cells are grown in LB (pH 7.5), and tetracycline-containing samples are added to aliquots when the density of the culture is 0.1 OD units. After 3-4 generations of the cells, each aliquot is measured for β-galactosidase activity as described (10, 12) and Miller Units (12) are determined. […] For both the plate and liquid assays, this strain is more sensitive than a previously reported screening organism (11).

strain KB3ind [5] = assay: Tetracycline liquid assay (β-galactosidase, Miller Units); format: cell-based, E. coli; details: Escherichia coli
Procedure: as §4

[6] = system: strain MC1061 with plasmid pGG58; assay: microbe, parasite or virus in culture; details: Escherichia coli, read-out: tetracycline resistance
strain KB4 [7] = assay: Induction in liquid culture, strain KB4; format: cell-based, E. coli; details: Escherichia coli, read-out: concentration for full induction of β-galactosidase
Procedure: as §3, §4

strain KB4 [8] = assay: microbe, parasite or virus in culture; details: Escherichia coli, read-out: tetracycline resistance conferred
[9] = system: E. coli MC1061 containing pCBSal; assay: MIC (LD 90) of maximally induced tetA (plasmid pCBSal); format: cell-based; details: Escherichia coli, read-out: MIC (LD 90) of Maximally Induced tetA, pCBSal
Procedure: as §1

[10] = system: strains containing pCB258; assay: microbe, parasite or virus in culture; details: Escherichia coli
[11] = system: Tn10 derivative of KB3ind; assay: microbe, parasite or virus in culture; details: Escherichia coli, read-out: tetracycline resistance
strain KB3ind [12] = format: cell-based, E. coli; details: strain KB3ind; plate assay (plate or liquid assay)
Procedure: as §2

What does the source list for CN(C)C1C(=O)C(C(N)=O)=C(O)C2(O)C(=O)C3=C(O)c4c(O)cccc4C(C)(O)C3CC12 (centres unmarked) [Tetracycline]?
MIC [1]: 100 µg/mL (≈ 225 µM); MIC (strain KB5): ~10 µg/mL; Tetracycline Detection, amount detected in Inhibition plate assay [2]: ≥ 1 ng; Tetracycline Detection, amount detected in Inhibition plate assay ([2]; listed as tetracycline): 1 ng; MIC ([3]; read-out: MIC (LD 90) of Maximally Induced tetK, pGG57): 125 µg/mL (≈ 281 µM); MIC ([3]; read-out: tetracycline resistance conferred): 25 µg/mL (≈ 56.3 µM); EC (full induction) [4]: > 1 µg/mL; EC (full induction) (strain KB3ind [5]; liquid culture, read-out: concentration for full induction of β-galactosidase): 0.005 to 0.01 µg/mL; minimal effective concentration (strain KB3ind [5]; read-out: lowest concentration detected in liquid assay): 0.0001 µg/mL; MIC [6]: 15 µg/mL (≈ 33.8 µM); EC (full induction) (strain KB4 [7]): 0.03 µg/mL; MIC (strain KB4 [8]): < 10 µg/mL; MIC [9]: 150 µg/mL (≈ 338 µM); MIC ([10]; PCB258): 50 µg/mL (≈ 113 µM); MIC ([10]; PCB258, read-out: tetracycline resistance conferred): 40 µg/mL (≈ 90 µM); MIC [11]: > 100 µg/mL; response in the Tetracycline Assay (β-galactosidase induction) (strain KB3ind [12]): capable of detecting
